For orientation: IC50 means the point on the concentration scale where inhibition reaches its midpoint.

Each structure is given as a SMILES string. Like-named read-outs stand apart in the source and are kept apart here.

These results are taken from publication PMC11141316, “Anilino-1,4-naphthoquinones as potent mushroom tyrosinase inhibitors: in vitro and in silico studies” (Journal of Enzyme Inhibition and Medicinal Chemistry, 2024).

Test [1] deals with mushroom tyrosinase. The settings on record: read-out: IC50 (previously reported tyrosinase inhibitor); cited from earlier work.
For another test, the system named is EGFR. Set-up: method as in PMID 35664590, PMID 25019480. The settings on record: cited from earlier work.
Test [2] concerns the target mushroom tyrosinase. In words: Mushroom tyrosinase activity assay (L-DOPA to dopachrome). In kind it is biochemical. As to conditions: L-DOPA substrate, 37 °C, pH 6.8, mean ± SEM, n = 3. Here is the method: Enzymatic conversion of L-DOPA into dopachrome by mushroom tyrosinase (Sigma Aldrich, St. Louis, MO) was detected using spectrophotometric evaluation. The mushroom tyrosinase activity assay was performed according to a previous report. In this study, the enzyme assay was conducted at 37 °C, which is in the optimal temperature range of tyrosinase, as per previous studies[20]^,[21]. The enzyme, substrate, and inhibitor(s) were dissolved in potassium phosphate buffer at a pH of 6.8, which is in the optimal pH range of tyrosinase. Note that, the solvent for preparing the stock solution of inhibitors was dimethyl sulphoxide. […] Then, the substrate (10 μL of 50 mM of L-DOPA) was introduced to the samples, followed by incubation at 37 °C for 15 min in darkness. The absorbance was later measured at 450 nm. The experiment was conducted in triplicate. IC50 values were determined through dose–response curve analysis using GraphPad Prism 10.2.2 software (La Jolla, CA).
Data are presented as the mean ± standard error of the mean (SEM) from three independent experiments (n = 3). Statistical comparisons between two groups were conducted using the t-test, with a p value of <0.05 considered to be statistically significant.

As for `C[C@@H]1[C@H](O)[C@@H](C)/C=C/C=C/C=C/C=C/C=C/C=C/C=C/[C@H](O[C@@H]2O[C@H](C)[C@@H](O)[C@H](N)[C@@H]2O)C[C@@H]2O[C@](O)(C[C@@H](O)C[C@@H](O)[C@H](O)CC[C@@H](O)C[C@@H](O)CC(=O)O[C@H]1C)C[C@H](O)[C@H]2C(=O)O` [amphotericin B], the IC50 on mushroom tyrosinase [1] was 263 ± 11.8 µM.

With `O=c1c(O)c(-c2ccc(O)cc2O)oc2cc(O)cc(O)c12` [morin], the IC50 on mushroom tyrosinase [1] is 2320 µM. For the compound `Cc1ccc(NC2=C(Cl)C(=O)c3ccccc3C2=O)cc1` [compound 3], the “EGFR inhibitory potency relative to erlotinib” value with EGFR is “fourfold higher potency than erlotinib”. At mushroom tyrosinase [2], `CC(=O)c1cccc(NC2=C(Cl)C(=O)c3ccccc3C2=O)c1` [compound 10] yielded a concentration for half-maximal inhibition (IC50) of 112 ± 9.18 µM. Regarding `O=C1C(Cl)=C(Nc2ccc(Br)cc2)C(=O)c2ccccc21` [compound 5], 138 ± 6.07 µM corresponded to half-maximal inhibition on mushroom tyrosinase [2] (IC50). Turning to `O=C1C=C(Nc2ccccc2)C(=O)c2ccccc21` [compound 1], at mushroom tyrosinase [2], the IC50 came out at 151 ± 4.39 µM. For the compound `CC1(C)C=Cc2c(O)ccc(C3=Cc4ccc(O)cc4OC3)c2O1` [glabrene], the IC50 on mushroom tyrosinase [1] is 7600 µM.
